Columns and labels:
Assay in all cases: relative viability (nuclei count vs DMSO), 5 days (fraction); higher = more cells survive
[1] = compound: O[C@@H](COc1cccc2ncccc12)CN1CCN([C@@H]2c3ccccc3[C@@H]3[C@H](c4ccccc42)C3(F)F)CC1 [Zosuquidar] + Cc1cc(Nc2cc(N3CCN(C)CC3)nc(Sc3ccc(NC(=O)C4CC4)cc3)n2)n[nH]1 [Tozasertib] (partner 0.1 µM)
Summary of the method: (§1)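 One day after seeding in 1536-well plates, lung cancer cell lines were dosed by pin tool. Dosing was either single-drug or a fixed anchor-drug dose plus five library-drug doses (not always all listed) in √10 steps. After 5 days, nuclei were stained in one fix-and-stain step and counted on 4× images, and relative viability is the nuclei count of treated wells over that of vehicle wells, given as the median of duplicate plates.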

[2] = compound: COc1cc2nccc(Oc3ccc(NC(=O)C4(C(=O)Nc5ccc(F)cc5)CC4)cc3)c2cc1OC [Cabozantinib] + O=C(CCCCCCC(=O)Nc1ccccc1)NO [Vorinostat] (partner 1 µM)
Summary of the method: as §1

[3] = compound: O[C@@H](COc1cccc2ncccc12)CN1CCN([C@@H]2c3ccccc3[C@@H]3[C@H](c4ccccc42)C3(F)F)CC1 [Zosuquidar] + Cc1nc(Nc2ncc(C(=O)Nc3c(C)cccc3Cl)s2)cc(N2CCN(CCO)CC2)n1 [Dasatinib] (partner 0.075 µM)
Summary of the method: as §1

[4] = compound: COc1cc2nccc(Oc3ccc(NC(=O)C4(C(=O)Nc5ccc(F)cc5)CC4)cc3)c2cc1OC [Cabozantinib] + Cc1nc(NC(=O)N2CCC[C@H]2C(N)=O)sc1-c1ccnc(C(C)(C)C(F)(F)F)c1 [Alpelisib] (partner 2 µM)
Summary of the method: as §1

Cell Line | relative viability ([1]; first compound 0.01 µM) | relative viability ([1]; first compound 0.03162 µM) | relative viability ([1]; first compound 0.1 µM) | relative viability ([1]; first compound 0.3162 µM) | relative viability ([1]; first compound 1 µM) | relative viability ([2]; first compound 0.02 µM) | relative viability ([2]; first compound 0.06325 µM) | relative viability ([2]; first compound 0.2 µM) | relative viability ([2]; first compound 0.6325 µM) | relative viability ([2]; first compound 2 µM) | relative viability ([3]; first compound 0.01 µM) | relative viability ([3]; first compound 0.03162 µM) | relative viability ([3]; first compound 0.1 µM) | relative viability ([3]; first compound 0.3162 µM) | relative viability ([3]; first compound 1 µM) | relative viability ([4]; first compound 0.02 µM) | relative viability ([4]; first compound 0.06325 µM) | relative viability ([4]; first compound 0.2 µM) | relative viability ([4]; first compound 0.6325 µM) | relative viability ([4]; first compound 2 µM)
SW 900 | 0.581 | 0.583 | 0.573 | 0.665 | 0.473 | 0.521 | 0.678 | 0.411 | 0.515 | 0.464 | 0.795 | 0.609 | 0.57 | 0.545 | 0.61 | – | – | – | – | –
NCI-H358 | 0.109 | 0.12 | 0.093 | 0.1 | 0.0956 | 0.683 | 0.905 | 0.556 | 0.623 | 0.534 | 0.144 | 0.172 | 0.142 | 0.183 | 0.153 | 0.912 | 1.13 | 0.852 | 0.803 | 0.824
PC-3 [JPC-3] | 0.844 | 0.835 | 0.879 | 0.824 | 0.897 | 0.694 | 1.1 | – | 0.816 | 1.02 | 1 | 1.02 | 0.941 | 0.927 | 0.964 | 1.02 | 1.16 | – | 1.06 | 1.04
NCI-H1651 | 0.603 | 0.607 | 0.782 | 0.627 | 0.623 | 0.511 | 0.709 | 0.533 | 0.571 | 0.622 | 0.357 | 0.324 | 0.463 | 0.356 | 0.381 | 0.883 | 0.998 | 0.97 | 0.952 | 0.728
HCC-827 | 0.413 | 0.369 | 0.401 | 0.386 | 0.386 | 0.837 | 1.05 | – | 0.785 | 0.526 | 0.293 | 0.348 | 0.237 | 0.272 | 0.351 | 0.977 | 1.04 | – | 0.925 | 0.9
HCC-366 | 0.153 | 0.395 | 0.195 | 0.121 | 0.102 | 0.309 | 0.381 | 0.374 | 0.378 | 0.429 | 0.608 | 0.468 | 0.496 | 0.767 | 0.704 | 0.585 | 0.619 | 0.445 | 0.328 | 0.294
HARA | 0.111 | – | 0.112 | 0.0991 | 0.102 | 0.576 | 0.52 | – | 0.529 | 0.489 | 0.252 | – | 0.26 | 0.257 | 0.27 | 0.878 | 1.05 | 0.639 | 0.788 | 0.84
NCI-H520 | 0.413 | 0.441 | – | 0.392 | 0.416 | 0.719 | 0.64 | 0.715 | 0.598 | 0.688 | 0.224 | 0.156 | – | 0.254 | 0.189 | 0.92 | 0.928 | 0.958 | 0.713 | 0.833
NCI-H1299 | – | – | – | – | – | – | – | – | – | – | – | – | – | – | – | 1.06 | 1.06 | 1.12 | 1 | 1.12
SW 1573 | 0.171 | 0.147 | 0.14 | 0.182 | 0.157 | 0.757 | 0.844 | 0.961 | 0.898 | 0.906 | 0.603 | 0.437 | 0.667 | 0.456 | 0.595 | 1.02 | 0.719 | 0.77 | 0.792 | 0.651
CAL-12T | 0.263 | 0.289 | 0.329 | 0.333 | 0.286 | 0.849 | 0.673 | 0.801 | 0.822 | 0.833 | 0.355 | 0.397 | 0.38 | 0.606 | 0.443 | 1.23 | 1.27 | 1.19 | 1.16 | 1.18
COR-L 105 | 0.293 | 0.315 | 0.402 | 0.309 | 0.333 | 0.847 | 1.05 | 0.734 | 0.839 | 0.89 | 0.353 | 0.334 | 0.341 | 0.358 | 0.279 | 0.898 | 1.08 | – | 0.945 | 0.859
NCI-H3122 | 0.396 | 0.391 | – | 0.466 | 0.379 | 0.992 | 1 | 1.07 | 1.11 | 1.02 | 0.666 | 0.653 | 0.787 | 0.863 | 0.914 | 0.875 | 0.778 | 0.731 | 0.97 | 0.956
NCI-H2228 | 0.213 | 0.272 | 0.252 | 0.208 | 0.272 | 0.732 | 1.05 | 0.763 | 0.74 | 0.707 | 0.507 | 0.573 | 0.612 | 0.621 | 0.551 | 0.794 | 0.922 | 0.784 | 0.564 | 0.711
RERF-LC-KJ | 0.501 | 0.552 | 0.505 | 0.519 | 0.428 | 0.65 | 0.768 | 0.666 | 0.801 | 0.75 | 0.729 | 0.859 | 0.896 | 0.74 | 0.782 | 0.864 | 0.877 | 0.733 | 0.847 | 0.675
